Results published in patent US20210238176A1, “PESTICIDALLY-ACTIVE BICYCLIC HETEROAROMATIC COMPOUNDS” (SYNGENTA CROP PROTECTION AG, priority 2018, published 2021).

Assays:
Type in all cases: in vivo
[1] = system: neonicotinoid-resistant Myzus persicae; assay: Myzus persicae (neonicotinoid-resistant) mixed population, contact/feeding, pepper plants; details: 120 h, neonicotinoid-resistant strain on pepper plants, 5 days after treatment, read-out: control (mortality)
Procedure: Myzus persicae (Neonicotinoid-Resistant, Green Peach Aphid), Mixed Population, Contact/Feeding.
Pepper plants were infested with mixed aged neonicotinoid-resistant aphid population and were treated 1 day after infestation with diluted test solutions in a spray chamber. 5 days after treatment, samples were assessed for mortality.

[2] = system: Myzus persicae (Green Peach Aphid); assay: Myzus persicae systemic activity, pea seedling roots in test solution; details: 144 h, test rate 24 ppm, systemic via pea seedling roots, 6 days
Procedure: Myzus persicae (Green Peach Aphid). Systemic Activity
Roots of pea seedlings infested with an aphid population of mixed ages were placed directly into aqueous test solutions prepared from 10,000 ppm DMSO stock solutions. The samples were assessed for mortality 6 days after placing seedlings into test solutions.

[3] = system: Myzus persicae (Green Peach Aphid); assay: Myzus persicae (green peach aphid) feeding/contact activity, sunflower leaf discs; details: foliar, 144 h, application rate 200 ppm, aphid population of mixed ages, 6 days after infestation
Procedure: Myzus persicae (Green Peach Aphid): Feeding/Contact Activity
Sunflower leaf discs were placed onto agar in a 24-well microtiter plate and sprayed with aqueous test solutions prepared from 10,000 ppm DMSO stock solutions. After drying, the leaf discs were infested with an aphid population of mixed ages. The samples were assessed for mortality 6 days after infestation.

[4] = system: Myzus persicae (Green Peach Aphid); assay: Myzus persicae intrinsic activity, sucrose solution under Parafilm; details: 120 h, test rate 12 ppm, 5 days after infestation
Source text: Myzus persicae (Green Peach Aphid). Intrinsic Activity
Test compounds prepared from 10,000 ppm DMSO stock solutions were applied by pipette into 24-well microtiter plates and mixed with sucrose solution. The plates were closed with a stretched Parafilm. A plastic stencil with 24 holes was placed onto the plate and infested pea seedlings were placed directly on the Parafilm. The infested plate was closed with a gel blotting paper and another plastic stencil and then turned upside down. The samples were assessed for mortality 5 days after infestation.

[5] = system: Bemisia tabaci (Cotton White Fly); assay: Bemisia tabaci (cotton white fly) feeding/contact activity, cotton leaf discs; details: foliar, 144 h, application rate 200 ppm, adult white flies, 6 days after incubation
Procedure: Bemisia tabaci (Cotton White Fly): Feeding/Contact Activity
Cotton leaf discs were placed on agar in 24-well microtiter plates and sprayed with aqueous test solutions prepared from 10,000 ppm DMSO stock solutions. After drying the leaf discs were infested with adult white flies. The samples were checked for mortality 6 days after incubation.

[6] = system: Nilaparvata lugens (Brown Plant Hopper, metabolic neonicotinoid-resistant); assay: Nilaparvata lugens (metabolic neonicotinoid-resistant) larvicide, feeding/contact, rice plants; details: 168 h, N3 nymphs, neonicotinoid-resistant strain, 7 days after treatment, read-out: control (mortality and growth regulation)
Procedure: Nilaparvata lugens (Brown Plant Hopper—Metabolic Neonicotinoid-Resistant), Larvicide, Feeding/Contact
Rice plants were treated with the diluted test solutions in a spray chamber. After drying, the plants were infested with ˜20 N3 nymphs. 7 days after the treatment, samples were assessed for mortality and growth regulation.

[7] = system: neonicotinoid-resistant Myzus persicae; assay: Myzus persicae (neonicotinoid-resistant) mixed population, contact, pea seedlings; details: 120 h, neonicotinoid-resistant strain on pea seedlings, 5 days after treatment, read-out: control (mortality)
Procedure: Myzus persicae (Green Peach Aphid—Neonicotinoid-Resistant), Mixed Population, Contact
Pea seedlings infested with a mixed-aged neonicotinoid-resistant Myzus persicae population were treated with diluted test solutions in a spray chamber and checked for mortality 5 days after treatment.

[8] = system: neonicotinoid-resistant Bemisia tabaci; assay: Bemisia tabaci (metabolic neonicotinoid-resistant) adult, cotton leaf discs; details: foliar, 96 h, 4 days after infestation, read-out: control (% adult mortality)
Procedure: Bemisia tabaci (Neonicotinoid-Resistant, Cotton Whitefly-Metabolic Neonicotinoid-Resistant), Adult.
5 cm cotton leaf discs were placed upside down in petri dishes poured out with 11 mL 0.8% water agar and applied in a turntable spraying chamber. After drying of the spray deposits, leaf discs were infested with 10 adult neonicotinoid-resistant Bemisia tabaci. Dishes were covered with a fabric filter and sealed with a perforated plastic lid. Evaluation was made 4 days after infestation on % adult mortality.

O=c1nc2n(Cc3ccc(Cl)nc3)cccc-2n1-c1cnn(C2CC2)c1 [Compound A93, 4-[(6-chloro-3-pyridyl)methyl]-1-(1-cyclopropylpyrazol-4-yl)imidazo[4,5-b]pyridin-2-one]
≥ 80%: mortality at 200 ppm [1] | mortality at 24 ppm [2] | mortality at 200 ppm [3] | mortality at 12 ppm [4] | mortality at 200 ppm [5] | mortality at 200 ppm [6]

Cc1c(-n2c3cccn(Cc4ccc(Cl)nc4)c-3nc2=O)cnn1C [Compound A92, 4-[(6-chloro-3-pyridyl)methyl]-1-(1,5-dimethylpyrazol-4-yl)imidazo[4,5-b]pyridin-2-one]
≥ 80%: mortality at 200 ppm [1] | mortality at 24 ppm [2] | mortality at 200 ppm [3] | mortality at 12 ppm [4] | mortality at 200 ppm [5] | mortality at 200 ppm [6]

Cc1ccc(-n2c3cccn(Cc4ccc(Cl)nc4)c-3nc2=O)cc1 [Compound A30, 4-[(6-chloro-3-pyridyl)methyl]-1-(p-tolyl)imidazo[4,5-b]pyridin-2-one]
≥ 80%: mortality at 200 ppm [7] | mortality at 200 ppm [3] | mortality at 12 ppm [4]

O=c1nc2n(Cc3ccc(Cl)nc3)cccc-2n1-c1cncc(F)c1 [Compound A26, 4-[(6-chloro-3-pyridyl)methyl]-1-(5-fluoro-3-pyridyl)imidazo[4,5-b]pyridin-2-one]
≥ 80%: mortality at 200 ppm [7] | mortality at 24 ppm [2] | mortality at 200 ppm [3] | mortality at 12 ppm [4]

CCn1cc(-n2c3cccn(Cc4ccc(Cl)nc4)c-3nc2=O)cn1 [Compound A63, 4-[(6-chloro-3-pyridyl)methyl]-1-(1-ethylpyrazol-4-yl)imidazo[4,5-b]pyridin-2-one]
≥ 80%: mortality at 200 ppm [1] | mortality at 200 ppm [8] | mortality at 200 ppm [3] | mortality at 12 ppm [4] | mortality at 200 ppm [5]
